Values quoted from earlier work, collected in patent US11229617B2, “Topical anti-inflammatory compositions” (Achelios Therapeutics, Inc., priority 2016, dated 2022).

| SMILES | pKa |
| --- | --- |
| CCCCCC(=O)O [hexanoic (caproic) acid] | 4.88 |
| CC(C)(O)CC(=O)O [hydroxymethyl-butyric acid] | 4.55 |
